Patent US20250100998A1, “PARP7 INHIBITORS” (Gilead Sciences, Inc., priority 2023, published 2025)

System: STAT1 (phosphorylated at Tyr701) in NCI-H1373 cells
Experiment: Phospho-STAT1 (Tyr701) LANCE Ultra TR-FRET detection assay
Assay type: cell-based
Conditions: Homo sapiens, NCI-H1373, 48 h, induction of pSTAT1 in NCI-H1373 cells, 48 hours incubation; normalized to 10 uM positive control and DMSO; 4-parameter fit; read-out: NH1373 pSTAT1 EC50
Protocol: Phospho-STAT1 (Tyr701 LANCE Ultra TR-FRET Detection Assay
LANCE Ultra phospho-STAT1 (Tyr701) kits are designed for the detection of phosphorylated STAT1 in cell lysates using a simple, homogeneous LANCE Ultra sandwich assay (Cat. #TRF4028M). This assay is intended for assessing compound induction of endogenous levels of cellular STAT1 (phosphorylated at Tyr701) in NCI-H1373 cells. The NCI-H1373 cells are cultured in RPMI 1640 media containing 10% heat inactivated FBS, GlutaMAX, 1% Penicillin-Streptomycin. An Echo acoustic liquid handler is used to transfer 60 nanoliters of compound dilutions using the Echo Qualified, 384-well polypropylene microplate clear flat bottom source plates into a Greiner (#781080) cell culture microplate. NCI-H1373 cells are seeded into these compound-spotted culture plates at 30,000 cells/well in a 60 uL volume in growth media. The plates are incubated in a 5% CO2 humidified incubator at 37° C. for 48 hours. […] Briefly, […] of supplemented lysis buffer is added to each well and allowed to shake for 1 hour at 400 rpm. Next, 5 ul of remixed antibody solutions (vol/vol) prepared in detection buffer are added to each well and allowed to incubate at room temperature overnight. After spinning the plate down at 300 rpm for 1 min, the plate is read on an EnVision plate reader set up for Eu3+ Cryptate and fluorescence emission is measured at two different wavelengths (665 nm and 620 nm). The HTRF ratio is then calculated ([…]) for each well to determine the amount of pSTAT1 in the cell lysate, and the data is then normalized to 10 uM (S)-5-((1-(3-oxo-3-(4-(5-(trifluoromethyl)pyrimidin-2-yl)piperazin-1-yl)propoxy)propan-2-yl)amino)-4-(trifluoromethyl)pyridazin-3(2H)-one positive and DMSO negative controls. The values were then plotted as a function of compound concentration and a 4-parameter fit was applied to derive the EC50 values.

Structure (SMILES)	EC50 [nM]
CC(F)(F)c1cnc(-c2cc3c(F)cn(C[C@@H]4CCC[C@H](Nc5cn[nH]c(=O)c5C(F)(F)F)C4)c(=O)c3c(F)c2F)nc1 [Example 43]	2.6
CC(C)(O)c1cnc(-c2cc3c(F)cn(C[C@@H]4CCC[C@H](Oc5cn[nH]c(=O)c5C(F)(F)F)C4)c(=O)c3c(F)c2F)nc1 [Example 48, 4,7,8-trifluoro-6-(5-(2-hydroxypropan-2-yl)pyrimidin-2-yl)-2-(((1R,3S)-3-((6-oxo-5-(trifluoromethyl)-1,6-dihydropyridazin-4-yl)oxy)cyclohexyl)methyl)isoquinolin-1(2H)-one]	1.03
COc1nc(-c2cc3ccn(C[C@@H]4CCC[C@H](Nc5cn[nH]c(=O)c5C(F)(F)F)C4)c(=O)c3cc2F)ncc1C#N [Example 3, 2-(7-fluoro-1-oxo-2-(((1R,3S)-3-((6-oxo-5-(trifluoromethyl)-1,6-dihydropyridazin-4-yl)amino)cyclohexyl)methyl)-1,2-dihydroisoquinolin-6-yl)-4-methoxypyrimidine-5-carbonitrile]	3.85
Cc1nc(-c2cc3ccn(C[C@@H]4CCC[C@H](Nc5cn[nH]c(=O)c5C(F)(F)F)C4)c(=O)c3cc2F)ncc1C(F)(F)F [Example 6, 7-fluoro-6-(4-methyl-5-(trifluoromethyl)pyrimidin-2-yl)-2-(((1R,3S)-3-((6-oxo-5-(trifluoromethyl)-1,6-dihydropyridazin-4-yl)amino)cyclohexyl)methyl)isoquinolin-1(2H)-one]	5.13
O=C1c2cc(F)c(-c3ncc(C(F)F)cn3)cc2CCN1C[C@@H]1CCC[C@H](Nc2cn[nH]c(=O)c2C(F)(F)F)C1 [Example 72, 6-(5-(difluoromethyl)pyrimidin-2-yl)-7-fluoro-2-(((1R,3S)-3-((6-oxo-5-(trifluoromethyl)-1,6-dihydropyridazin-4-yl)amino)cyclohexyl)methyl)-3,4-dihydroisoquinolin-1(2H)-one]	3.74
O=c1[nH]ncc(N[C@H]2CCC[C@@H](Cn3cnc4cc(-c5ncc(OC(F)F)cn5)c(F)cc4c3=O)C2)c1C(F)(F)F [Example 25, 7-(5-(difluoromethoxy)pyrimidin-2-yl)-6-fluoro-3-(((1R,3S)-3-((6-oxo-5-(trifluoromethyl)-1,6-dihydropyridazin-4-yl)amino)cyclohexyl)methyl)quinazolin-4(3H)-one]	3.78
COc1cnc(-c2cc3c(F)cn(C[C@@H]4CCC[C@H](Nc5cn[nH]c(=O)c5C(F)(F)F)C4)c(=O)c3c(F)c2F)nc1 [Example 35, 4,7,8-trifluoro-6-(5-methoxypyrimidin-2-yl)-2-(((1R,3S)-3-((6-oxo-5-(trifluoromethyl)-1,6-dihydropyridazin-4-yl)amino)cyclohexyl)methyl)isoquinolin-1(2H)-one]	1.45
CS(=O)(=O)c1ccc(-c2cc3ccn(C[C@@H]4CCC[C@H](Nc5cn[nH]c(=O)c5C(F)(F)F)C4)c(=O)c3cc2F)nc1 [Example 11, 7-fluoro-6-(5-(methylsulfonyl)pyridin-2-yl)-2-(((1R,3S)-3-((6-oxo-5-(trifluoromethyl)-1,6-dihydropyridazin-4-yl)amino)cyclohexyl)methyl)isoquinolin-1(2H)-one]	13.6
O=c1[nH]ncc(N[C@H]2CCC[C@@H](Cn3ccc4cc(-c5ccc(C(F)F)cn5)c(F)c(F)c4c3=O)C2)c1C(F)(F)F [Example 19, 6-(5-(difluoromethyl)pyridin-2-yl)-7,8-difluoro-2-(((1R,3S)-3-((6-oxo-5-(trifluoromethyl)-1,6-dihydropyridazin-4-yl)amino)cyclohexyl)methyl)isoquinolin-1(2H)-one]	4.78
N#Cc1cnc(-c2cc3ccn(C[C@@H]4CCC[C@H](Nc5cn[nH]c(=O)c5C(F)(F)F)C4)c(=O)c3c(F)c2F)nc1 [Example 29, 2-(7,8-difluoro-1-oxo-2-(((1R,3S)-3-((6-oxo-5-(trifluoromethyl)-1,6-dihydropyridazin-4-yl)amino)cyclohexyl)methyl)-1,2-dihydroisoquinolin-6-yl)pyrimidine-5-carbonitrile]	1.8
O=c1[nH]ncc(N[C@H]2CCC[C@@H](Cn3cc(F)c4cc(-c5nc6ccccn6n5)c(F)cc4c3=O)C2)c1C(F)(F)F [Example 32, 6-([1,2,4]triazolo[1,5-a]pyridin-2-yl)-4,7-difluoro-2-(((1R,3S)-3-((6-oxo-5-(trifluoromethyl)-1,6-dihydropyridazin-4-yl)amino)cyclohexyl)methyl)isoquinolin-1(2H)-one]	1.53
CC(C)(O)c1cnc(-c2cc3c(F)cn(C[C@@H]4CCC[C@H](Nc5cn[nH]c(=O)c5C(F)(F)F)C4)c(=O)c3c(F)c2F)nc1 [Example 37, 4,7,8-trifluoro-6-(5-(2-hydroxypropan-2-yl)pyrimidin-2-yl)-2-(((1R,3S)-3-((6-oxo-5-(trifluoromethyl)-1,6-dihydropyridazin-4-yl)amino)cyclohexyl)methyl)isoquinolin-1(2H)-one]	2.48
O=c1[nH]ncc(N[C@H]2CCC[C@@](O)(Cn3ccc4cc(-c5ncc(C(F)(F)F)cn5)c(F)cc4c3=O)C2)c1C(F)(F)F [Example 63, 7-fluoro-2-[[(1S,3S)-1-hydroxy-3-[[6-oxo-5-(trifluoromethyl)-1H-pyridazin-4-yl]amino]cyclohexyl]methyl]-6-[5-(trifluoromethyl)pyrimidin-2-yl]isoquinolin-1-one]	1.87
O=c1[nH]ncc(N[C@H]2CCC[C@@H](Cn3ccc4cc(-c5nc6n(n5)COCCO6)c(F)cc4c3=O)C2)c1C(F)(F)F [Example 8, 6-(7,8-dihydro-5H-[1,2,4]triazolo[5,1-b][1,5,3]dioxazepin-2-yl)-7-fluoro-2-(((1R,3S)-3-((6-oxo-5-(trifluoromethyl)-1,6-dihydropyridazin-4-yl)amino)cyclohexyl)methyl)isoquinolin-1(2H)-one]	5.86
O=c1[nH]ncc(O[C@H]2CCC[C@@H](Cn3cc(F)c4cc(-c5ncc(OC(F)F)cn5)c(F)c(F)c4c3=O)C2)c1C(F)(F)F [Example 50, 6-(5-(difluoromethoxy)pyrimidin-2-yl)-4,7,8-trifluoro-2-(((1R,3S)-3-((6-oxo-5-(trifluoromethyl)-1,6-dihydropyridazin-4-yl)oxy)cyclohexyl)methyl)isoquinolin-1(2H)-one]	1.29
O=c1[nH]ncc(N[C@H]2CCC[C@@H](Cn3ccc4cc(-c5ncc(OC(F)F)cn5)c(F)cc4c3=O)C2)c1C(F)(F)F [Example 5, 6-(5-(difluoromethoxy)pyrimidin-2-yl)-7-fluoro-2-(((1R,3S)-3-((6-oxo-5-(trifluoromethyl)-1,6-dihydropyridazin-4-yl)amino)cyclohexyl)methyl)isoquinolin-1(2H)-one]	4.74
O=c1[nH]ncc(N[C@H]2CCC[C@@H](Cn3cc(Cl)c4cc(-c5ncc(C(F)F)cn5)c(F)cc4c3=O)C2)c1C(F)(F)F [Example 60, 4-chloro-6-(5-(difluoromethyl)pyrimidin-2-yl)-7-fluoro-2-(((1R,3S)-3-((6-oxo-5-(trifluoromethyl)-1,6-dihydropyridazin-4-yl)amino)cyclohexyl)methyl)isoquinolin-1(2H)-one]	6.23
Cc1nc(-c2cc3ccn(C[C@@H]4CCC[C@H](Nc5cn[nH]c(=O)c5C(F)(F)F)C4)c(=O)c3cc2F)ncc1Cl [Example 7, 6-(5-chloro-4-methylpyrimidin-2-yl)-7-fluoro-2-(((1R,3S)-3-((6-oxo-5-(trifluoromethyl)-1,6-dihydropyridazin-4-yl)amino)cyclohexyl)methyl)isoquinolin-1(2H)-one]	6.03
[2H]C([2H])([2H])Oc1cnc(-c2cc3c(cc2F)C(=O)N(C[C@@H]2CCC[C@H](Nc4cn[nH]c(=O)c4C(F)(F)F)C2)CC3)nc1 [Example 71, 7-fluoro-2-[[(1R,3S)-3-[[6-oxo-5-(trifluoromethyl)-1H-pyridazin-4-yl]amino]cyclohexyl]methyl]-6-[5-(trideuteriomethoxy)pyrimidin-2-yl]-3,4-dihydroisoquinolin-1-one]	7.6
O=c1[nH]ncc(N[C@@H]2C[C@H](Cn3ccc4cc(-c5ncc(C(F)(F)F)cn5)c(F)cc4c3=O)CC[C@@H]2O)c1C(F)(F)F (racemic) [Example 68, 7-fluoro-2-(((rac-1R,3R,4S)-4-hydroxy-3-((6-oxo-5-(trifluoromethyl)-1,6-dihydropyridazin-4-yl)amino)cyclohexyl)methyl)-6-(5-(trifluoromethyl)pyrimidin-2-yl)isoquinolin-1(2H)-one]	65.1
O=c1[nH]ncc(N[C@H]2CCC[C@@H](Cn3cc(F)c4cc(-c5ncc(C(F)(F)F)cn5)c(F)c(F)c4c3=O)C2)c1C(F)(F)F [Example 33, 4,7,8-trifluoro-2-(((1R,3S)-3-((6-oxo-5-(trifluoromethyl)-1,6-dihydropyridazin-4-yl)amino)cyclohexyl)methyl)-6-(5-(trifluoromethyl)pyrimidin-2-yl)isoquinolin-1(2H)-one]	1.51
